Data set [1] relates to Enterobacter ludwigii MGH216. In words: Spot-on-lawn assay in M63 agar, clinical isolate. It is filed as cell-based. The settings on record: reliably susceptible in at least three biological replicates. The procedure:
Cloacaenodin was evaluated against several common laboratory strains as well as commercially acquired strains using a spot-on-lawn assay.^45 Strains were streaked out onto LB agar plates and incubated overnight at their recommended temperatures. A single colony was then used to inoculate an overnight culture in 5 mL of LB broth. After shaking at 250 rpm at the recommended temperature for each strain, 50 μL of the overnight culture was used to inoculate 5 mL of LB broth (volume ratio 1:100). These cultures were grown for a few hours until they reached the exponential phase (OD600˜0.4-0.6) before being added to 10 mL of soft M63 agar at a final cell density of 10^7 CFUs/mL, or 10^8 CFUs total in 10 mL. The M63 soft agar was composed of 2 g/L of (NH4)2SO4 (EMD MilliporeSigma), 13.6 g/L of KH2PO4 (Fisher), 40 mg/L of each of the 20 common amino acids, 0.2% glucose (Sigma), 0.00005% w/v thiamine hydrochloride (Sigma), and 0.65% w/v bacteriological-grade agar (Apex Bioresearch). […] Upon solidification, 10 μL of purified cloacaenodin in water at two-fold dilutions were then spotted onto the agar and allowed to dry. The plates were incubated overnight at the strains' recommended temperatures and analyzed the next morning for activity. The MIC is defined as the last dilution where a spot was visible. […]

The target of the next data set is T1, trypsin (Sus scrofa, UniProt P00761).
T1 construct: purchased Promega
T1 sequence (P00761 9-231): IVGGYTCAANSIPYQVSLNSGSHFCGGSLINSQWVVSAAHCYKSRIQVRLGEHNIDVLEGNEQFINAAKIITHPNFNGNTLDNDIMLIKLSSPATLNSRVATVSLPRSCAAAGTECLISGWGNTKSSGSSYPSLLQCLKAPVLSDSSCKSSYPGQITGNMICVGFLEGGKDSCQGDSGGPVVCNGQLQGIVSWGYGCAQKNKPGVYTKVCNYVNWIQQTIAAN
Put plainly: Protease digestion, trypsin. Type of data set: in vitro ADME. The following applies: 50 μM peptide, room temperature, 30 minutes to 1 hour, LC-MS. The procedure: Sequencing grade trypsin (Promega) was added to 50 μM peptide samples at a 1:100 trypsin: peptide weight ratio in a buffer of 50 mM ammonium bicarbonate. The reaction was allowed to proceed at room temperature for 30 minutes to 1 hour and then quenched by 1% formic acid. An aliquot was then injected onto LC-MS for analysis.

A further data set has as its system Enterobacter cloacae. Put plainly: Microscopy of cells treated with sub-MIC cloacaenodin. It is filed as cell-based. The following applies: sub-MIC cloacaenodin (230 nM), 16 hours in M63 media. As for the experimental part: After a 96-well plate of E. cloacae grew for 16 hours at 30° C. with varying concentrations of cloacaenodin in M63 media, samples were imaged using a Zeiss Observer Z1 automated inverted microscope with a cage incubator kept at 37° C. The microscope was used with a 100× Zeiss chroma objective with oil immersion and 35 ms exposure transmitted light and controlled using SlideBook software. Images were viewed using the software ImageJ.

A further data set concerns B. subtilis 168. In words: Spot-on-lawn assay in M63 agar. It is filed as cell-based, Bacillus subtilis. The settings on record: purified cloacaenodin in water. The procedure: (§1) Cloacaenodin was evaluated against several common laboratory strains as well as commercially acquired strains using a spot-on-lawn assay.^45 Strains were streaked out onto LB agar plates and incubated overnight at their recommended temperatures. A single colony was then used to inoculate an overnight culture in 5 mL of LB broth. After shaking at 250 rpm at the recommended temperature for each strain, 50 μL of the overnight culture was used to inoculate 5 mL of LB broth (volume ratio 1:100). These cultures were grown for a few hours until they reached the exponential phase (OD600˜0.4-0.6) before being added to 10 mL of soft M63 agar at a final cell density of 10^7 CFUs/mL, or 10^8 CFUs total in 10 mL. The M63 soft agar was composed of 2 g/L of (NH4)2SO4 (EMD MilliporeSigma), 13.6 g/L of KH2PO4 (Fisher), 40 mg/L of each of the 20 common amino acids, 0.2% glucose (Sigma), 0.00005% w/v thiamine hydrochloride (Sigma), and 0.65% w/v bacteriological-grade agar (Apex Bioresearch). […] Upon solidification, 10 μL of purified cloacaenodin in water at two-fold dilutions were then spotted onto the agar and allowed to dry. The plates were incubated overnight at the strains' recommended temperatures and analyzed the next morning for activity. The MIC is defined as the last dilution where a spot was visible.

For a further data set, the target named is T2, Thermolysin (Geobacillus stearothermophilus, UniProt P43133).
T2 construct: purchased Sigma-Aldrich
T2 sequence (P43133 236-551): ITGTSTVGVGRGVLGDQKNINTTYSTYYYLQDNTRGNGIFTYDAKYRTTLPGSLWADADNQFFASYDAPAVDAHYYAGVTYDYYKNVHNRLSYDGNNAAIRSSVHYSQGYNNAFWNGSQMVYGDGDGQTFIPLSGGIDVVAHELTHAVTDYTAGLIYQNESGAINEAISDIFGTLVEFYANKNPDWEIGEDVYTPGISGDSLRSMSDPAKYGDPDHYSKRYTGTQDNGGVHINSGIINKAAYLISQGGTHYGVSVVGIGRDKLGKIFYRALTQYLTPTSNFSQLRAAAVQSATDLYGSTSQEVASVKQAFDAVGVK
Put plainly: Protease digestion, thermolysin. The following applies: 50 μM peptide, 30° C., about 1 hour, LC-MS. It is filed as in vitro ADME. As for the experimental part:
Thermolysin from Geobacillus stearothermophilus (Sigma-Aldrich) was first resuspended in 50 mM Tris, 0.5 mM CaCl2). The enzyme was then added to 50 μM peptide samples at a final concentration of about 0.04 mg/mL in a buffer of 50 mM Tris, 0.5 mM CaCl2), pH 8. The reactions were then allowed to incubate at 30° C. for about 1 hour before quenching with 1% formic acid. An aliquot was then injected onto LC-MS for analysis.

Data set [2] relates to Enterobacter amnigenus ATCC 33072. Type of data set: cell-based. As for the experimental part:
as §1

In data set [3] the test system is Enterobacter asburiae DSM 17506. It is filed as cell-based. As for the experimental part: as §1
Data set [4] has as its system Enterobacter mori DSM 26271. It is filed as cell-based. As for the experimental part: as §1
For data set [5], the system named is Enterobacter cloacae ATCC 13047. Type of data set: cell-based. As for the experimental part: as §1
In a further data set the test system is Enterobacter amnigenus. It is filed as cell-based. As for the experimental part: (§2) For liquid inhibition assays, 5 mL LB broth was inoculated with 40-50 μL of an overnight culture of E. cloacae or E. amnigenus. […] The plate was shaken at 30° C. at 250 rpm for E. cloacae, and 37° C. at 250 rpm for E. amnigenus. The OD600 was measured at 8-hour and 16-hour increments. The MIC is defined as the lowest concentration of cloacaenodin for which growth (as assessed by the OD600) was inhibited.

The subject of data set [6] is Enterobacter cloacae ATCC 13047. It is filed as cell-based. As for the experimental part:
as §2
This is another data set of the same source.

Data set [7] relates to Enterobacter nimipressuralis DSM 18955. Type of data set: cell-based.
Setting [8] is: listed as Threaded cloacaenodin.
The mark [9] stands for this setting: listed as threaded cloacaenodin.
[10] abbreviates: spot-on-lawn, M63 agar, purified cloacaenodin in water.

Values after ≈ are worked out from the molar mass of the structure shown. “Also recorded” adds a separate entry of the source. Like-named read-outs stand apart in the source and are kept apart here. Where a SMILES comes first, the peptide text is derived from it.

Take `CC[C@H](C)[C@@H]1NC(=O)[C@H](CCCNC(=N)N)NC(=O)[C@H](CC(=O)O)NC(=O)[C@H](C(C)C)NC(=O)[C@H](CO)NC(=O)[C@H](Cc2c[nH]cn2)NC(=O)CNC(=O)CC[C@@H](C(=O)N[C@@H](Cc2ccc(O)cc2)C(=O)N[C@@H](Cc2ccccc2)C(=O)NCC(=O)N2CCC[C@H]2C(=O)N2CCC[C@H]2C(=O)NCC(=O)N[C@@H](CC(C)C)C(=O)N2CCC[C@H]2C(=O)NCC(=O)N2CCC[C@H]2C(=O)N[C@H](C(=O)N[C@@H](CC(C)C)C(=O)N[C@@H](Cc2ccccc2)C(=O)N[C@@H](Cc2ccc(O)cc2)C(=O)N[C@@H](CO)C(=O)O)C(C)C)NC(=O)[C@@H]2CCCN2C1=O` [cloacaenodin] (HELM PEPTIDE1{G.H.S.V.D.R.I.P.E.Y.F.G.P.P.G.L.P.G.P.V.L.F.Y.S}$PEPTIDE1,PEPTIDE1,1:R1-9:R3$$$V2.0; C-terminus assumed): the “strain susceptible to cloacaenodin” value is “* MGH216” in data set [1], “* Enterobacter amnigenus” in data set [2] (Enterobacter amnigenus ATCC 33072), “* Enterobacter mori” in data set [4] (Enterobacter mori DSM 26271) and “* Enterobacter cloacae subsp. cloacae” in data set [5] (Enterobacter cloacae subsp. cloacae ATCC 13047). The values for the proteolysis by trypsin result on trypsin (setting [8]) and at trypsin (setting [9]) were “resistant to trypsin digestion” and “remained resistant to proteolysis”, respectively. Besides, the filamentation phenotype entry in the data set with Enterobacter cloacae is “degree of filamentation; also recorded: filamentation phenotype”. Also, the “antimicrobial activity (zones of inhibition)” value with B. subtilis 168 is given as “no observed activity”; in data set [2] (setting [10]), “zones of inhibition in the low micromolar range”; in data set [3] (setting [10]), “zones of inhibition in the low micromolar range”; in [4] (setting [10]), “zones of inhibition in the low micromolar range”; in data set [5] (setting [10]), “zones of inhibition in the low micromolar range”. For the same molecule, the results for the proteolysis by thermolysin entry at Thermolysin (setting [8]) and at Thermolysin (setting [9]) were “resistant to thermolysin digestion” and “remained resistant to proteolysis”, respectively. Besides, the “MIC in M63 media” value was 1.9 µM (≈ 4.91 µg/mL) in data set [2] (ATCC 33072); 1.9 µM (≈ 4.91 µg/mL) in data set [3] (DSM 17506); 3.8 µM (≈ 9.82 µg/mL) in data set [4] (DSM 26271); 7.5 µM (≈ 19.4 µg/mL) in [5] (ATCC 13047); 0.94 µM (≈ 2.43 µg/mL) in data set [6] (ATCC 13047); 0.94 µM (liquid) (≈ 2.43 µg/mL) in [6] (liquid, Enterobacter cloacae ATCC 13047). For the same molecule, the “MIC in M63 media” value in [7] is 0.94 µM (≈ 2.43 µg/mL). In data set [5] (peptide at a concentration of 15 μM, listed as threaded cloacaenodin), the “activity against Enterobacter cloacae” value is listed as “has activity”. Moreover, in the data set with Enterobacter amnigenus, the “MIC, broth microdilution assay in M63 media” value was 0.23 µM (≈ 0.594 µg/mL).
